According to patent US8076487B2, “Pyridone derivative and herbicide” (Kumiai Chemical Industry Co., Ltd., priority 2006, dated 2011):

Legend:
Type in all cases: in vivo
[1] = system: Japanese bulrush (Scirpus juncoides Roxb.); test: Test Example 1: herbicidal effect by soil application to paddy field; details: paddy field soil application; active ingredient 1,000 g per 1 hectare; wettable powder added dropwise to water surface the day after sowing; examined on the 21st day after application
How it was run: (§1)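 Under greenhouse conditions, seeds sown on puddled paddy soil in 100 cm2 pots under 3 cm of standing water received the test compound; injury was assessed with a standard scoring scheme three weeks (day 21) after treatment.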

[2] = system: early watergrass (Echinochloa oryzicola Vasing); test: as above; details: paddy field soil application; active ingredient 1,000 g per 1 hectare; wettable powder added dropwise to water surface the day after sowing; examined on the 21st day after application
How it was run: as §1

[3] = system: heartshape false pickerelweed (Monochoria vaginalis (Burm.f.) C.Presl); test: as above; details: paddy field soil application; active ingredient 1,000 g per 1 hectare; wettable powder added dropwise to water surface the day after sowing; examined on the 21st day after application
How it was run: as §1

[4] = system: barnyardgrass (Echinochloa crus-galli (L.) P. Beauv. var. crus-galli); test: Test Example 2: herbicidal effect by soil application to upland field; details: soil surface spray, upland field soil, 1,000 g active ingredient per hectare, 21st day after application
How it was run: (§2)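 Pots of field soil, seeds sown and soil-covered; wettable powder diluted in water sprayed on soil at 1,000 g a.i./ha (1,000 L/ha). Greenhouse-grown; herbicidal effect rated per standard at 21 days post-application.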

[5] = system: green foxtail (Setaria viridis (L.) P. Beauv.); test: as above; details: soil surface spray, upland field soil, 1,000 g active ingredient per hectare, 21st day after application
How it was run: as §2

[6] = system: slender amaranth (Amaranthus viridis L.); test: as above; details: soil surface spray, upland field soil, 1,000 g active ingredient per hectare, 21st day after application
How it was run: as §2

[7] = system: velvetleaf (Abutilon theophrasti medicus); test: as above; details: soil surface spray, upland field soil, 1,000 g active ingredient per hectare, 21st day after application
How it was run: as §2

[8] = system: barnyardgrass (Echinochloa crus-galli (L.) P. Beauv. var. crus-galli); test: Test Example 3: herbicidal effect by application to upland field (foliage treatment); details: 14th day after application; for herbicidal effect, Barnyardgrass: foliage treatment, 1,000 g active ingredient per 1 hectare, greenhouse; for herbicidal effect (index), Barnyardgrass: foliage treatment, plants grown two weeks, 1,000 g active ingredient per hectare
How it was run: (§3)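 Foliar spray on two-week-old greenhouse weeds in field soil: wettable powder formulation diluted in water, applied at 1,000 L/ha to give 1,000 g a.i./ha. Damage rated by a fixed scoring standard on day 14 after application.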

[9] = system: green foxtail (Setaria viridis (L.) P. Beauv.); test: as above; details: 14th day after application; for herbicidal effect, Green Foxtail: foliage treatment, 1,000 g active ingredient per 1 hectare, greenhouse; for herbicidal effect (index), Green Foxtail: foliage treatment, plants grown two weeks, 1,000 g active ingredient per hectare
How it was run: as §3

[10] = system: slender amaranth (Amaranthus viridis L.); test: as above; details: 14th day after application; for herbicidal effect, Slender Amaranth: foliage treatment, 1,000 g active ingredient per 1 hectare, greenhouse; for herbicidal effect (index), Slender Amaranth: foliage treatment, plants grown two weeks, 1,000 g active ingredient per hectare
How it was run: as §3

[11] = system: velvetleaf (Abutilon theophrasti medicus); test: as above; details: 14th day after application; for herbicidal effect, Velvetleaf: foliage treatment, 1,000 g active ingredient per 1 hectare, greenhouse; for herbicidal effect (index), Velvetleaf: foliage treatment, plants grown two weeks, 1,000 g active ingredient per hectare
How it was run: as §3

Row | SMILES | herbicidal effect, Scirpus juncoides Roxb. [1] | herbicidal effect, Echinochloa oryzicola Vasing [2] | herbicidal effect, Monochoria vaginalis (Burm. f.) C. Presl [3] | herbicidal effect (index), Barnyardgrass [4] | herbicidal effect (index), Green Foxtail [5] | herbicidal effect (index), Slender Amaranth [6] | herbicidal effect (index), Velvetleaf [7] | herbicidal effect, Barnyardgrass [8] | herbicidal effect, Green Foxtail [9] | herbicidal effect, Slender Amaranth [10] | herbicidal effect, Velvetleaf [11] | herbicidal effect (index), Barnyardgrass [8] | herbicidal effect (index), Green Foxtail [9] | herbicidal effect (index), Slender Amaranth [10] | herbicidal effect (index), Velvetleaf [11]
1 | C=CCn1c(C(F)(F)F)ccc(C(=O)C2=C(OC)CCCC2=O)c1=O [II-25] | 5 (90% or more of herbicidal effect and crop phytotoxicity) | 5 (90% or more of herbicidal effect and crop phytotoxicity) | 5 (90% or more of herbicidal effect and crop phytotoxicity) | 5 (90% or more of herbicidal effect and crop phytotoxicity) | 5 (90% or more of herbicidal effect and crop phytotoxicity) | 5 (90% or more of herbicidal effect and crop phytotoxicity) | 5 (90% or more of herbicidal effect and crop phytotoxicity) | 5 (90% or more of herbicidal effect and crop phytotoxicity) | 5 (90% or more of herbicidal effect and crop phytotoxicity) | 5 (90% or more of herbicidal effect and crop phytotoxicity) | 5 (90% or more of herbicidal effect and crop phytotoxicity) |  |  |  | 
2 | O=C1CCCC(O)=C1C(=O)c1ccc(C(F)(F)F)n(-c2ccc(Cl)cc2)c1=O [I-75] | 5 (90% or more of herbicidal effect and crop phytotoxicity) | 5 (90% or more of herbicidal effect and crop phytotoxicity) | 5 (90% or more of herbicidal effect and crop phytotoxicity) | 5 (90% or more of herbicidal effect and crop phytotoxicity) | 5 (90% or more of herbicidal effect and crop phytotoxicity) | 5 (90% or more of herbicidal effect and crop phytotoxicity) | 5 (90% or more of herbicidal effect and crop phytotoxicity) |  |  |  |  | 5 (90% or more of herbicidal effect and crop phytotoxicity) | 5 (90% or more of herbicidal effect and crop phytotoxicity) | 5 (90% or more of herbicidal effect and crop phytotoxicity) | 5 (90% or more of herbicidal effect and crop phytotoxicity)
3 | COc1cc(OC)cc(-n2c(C(F)(F)F)ccc(C(=O)C3=C(O)CCCC3=O)c2=O)c1 [I-101] | 5 (90% or more of herbicidal effect and crop phytotoxicity) | 5 (90% or more of herbicidal effect and crop phytotoxicity) | 5 (90% or more of herbicidal effect and crop phytotoxicity) | 5 (90% or more of herbicidal effect and crop phytotoxicity) | 5 (90% or more of herbicidal effect and crop phytotoxicity) | 5 (90% or more of herbicidal effect and crop phytotoxicity) | 5 (90% or more of herbicidal effect and crop phytotoxicity) |  |  |  |  | 5 (90% or more of herbicidal effect and crop phytotoxicity) | 5 (90% or more of herbicidal effect and crop phytotoxicity) | 5 (90% or more of herbicidal effect and crop phytotoxicity) | 5 (90% or more of herbicidal effect and crop phytotoxicity)
4 | CCOCCn1c(C(F)(F)F)ccc(C(=O)c2cnn(C)c2OC(=O)c2ccccc2)c1=O [IV-35] | 5 (90% or more of herbicidal effect and crop phytotoxicity) | 5 (90% or more of herbicidal effect and crop phytotoxicity) | 5 (90% or more of herbicidal effect and crop phytotoxicity) | 5 (90% or more of herbicidal effect and crop phytotoxicity) | 5 (90% or more of herbicidal effect and crop phytotoxicity) | 5 (90% or more of herbicidal effect and crop phytotoxicity) | 5 (90% or more of herbicidal effect and crop phytotoxicity) | 5 (90% or more of herbicidal effect and crop phytotoxicity) | 5 (90% or more of herbicidal effect and crop phytotoxicity) | 5 (90% or more of herbicidal effect and crop phytotoxicity) | 5 (90% or more of herbicidal effect and crop phytotoxicity) |  |  |  | 
5 | CCCCn1c(C(F)(F)F)ccc(C(=O)C2=C(O)CCCC2=O)c1=O [I-5] | 5 (90% or more of herbicidal effect and crop phytotoxicity) | 5 (90% or more of herbicidal effect and crop phytotoxicity) | 5 (90% or more of herbicidal effect and crop phytotoxicity) | 5 (90% or more of herbicidal effect and crop phytotoxicity) | 5 (90% or more of herbicidal effect and crop phytotoxicity) | 5 (90% or more of herbicidal effect and crop phytotoxicity) | 5 (90% or more of herbicidal effect and crop phytotoxicity) |  |  |  |  | 5 (90% or more of herbicidal effect and crop phytotoxicity) | 5 (90% or more of herbicidal effect and crop phytotoxicity) | 5 (90% or more of herbicidal effect and crop phytotoxicity) | 5 (90% or more of herbicidal effect and crop phytotoxicity)
6 | Cn1ncc(C(=O)c2ccc(C(F)(F)F)n(C3CC3)c2=O)c1O [IV-18] | 5 (90% or more of herbicidal effect and crop phytotoxicity) | 5 (90% or more of herbicidal effect and crop phytotoxicity) | 5 (90% or more of herbicidal effect and crop phytotoxicity) | 5 (90% or more of herbicidal effect and crop phytotoxicity) | 5 (90% or more of herbicidal effect and crop phytotoxicity) | 5 (90% or more of herbicidal effect and crop phytotoxicity) | 5 (90% or more of herbicidal effect and crop phytotoxicity) | 5 (90% or more of herbicidal effect and crop phytotoxicity) | 5 (90% or more of herbicidal effect and crop phytotoxicity) | 5 (90% or more of herbicidal effect and crop phytotoxicity) | 5 (90% or more of herbicidal effect and crop phytotoxicity) |  |  |  | 
7 | N#Cc1cccc(-n2c(C(F)(F)F)ccc(C(=O)C3=C(O)CCCC3=O)c2=O)c1 [I-94] | 5 (90% or more of herbicidal effect and crop phytotoxicity) | 5 (90% or more of herbicidal effect and crop phytotoxicity) | 5 (90% or more of herbicidal effect and crop phytotoxicity) | 5 (90% or more of herbicidal effect and crop phytotoxicity) | 5 (90% or more of herbicidal effect and crop phytotoxicity) | 5 (90% or more of herbicidal effect and crop phytotoxicity) | 5 (90% or more of herbicidal effect and crop phytotoxicity) |  |  |  |  | 5 (90% or more of herbicidal effect and crop phytotoxicity) | 5 (90% or more of herbicidal effect and crop phytotoxicity) | 5 (90% or more of herbicidal effect and crop phytotoxicity) | 5 (90% or more of herbicidal effect and crop phytotoxicity)
8 | O=C1CCCC(O)=C1C(=O)c1ccc(C(F)(F)F)n(-c2cccc(C(F)(F)F)c2)c1=O [I-85] | 5 (90% or more of herbicidal effect and crop phytotoxicity) | 5 (90% or more of herbicidal effect and crop phytotoxicity) | 5 (90% or more of herbicidal effect and crop phytotoxicity) | 5 (90% or more of herbicidal effect and crop phytotoxicity) | 5 (90% or more of herbicidal effect and crop phytotoxicity) | 5 (90% or more of herbicidal effect and crop phytotoxicity) | 5 (90% or more of herbicidal effect and crop phytotoxicity) |  |  |  |  | 5 (90% or more of herbicidal effect and crop phytotoxicity) | 5 (90% or more of herbicidal effect and crop phytotoxicity) | 5 (90% or more of herbicidal effect and crop phytotoxicity) | 5 (90% or more of herbicidal effect and crop phytotoxicity)
